Several values for one entry are separate records, joined by “and”; a condition that tells them apart may be missing. Equal values may be shown once. Numbers after ± are expanded uncertainties.
Assay: molar heat capacity at saturation pressure

CCCCn1cc[n+](C)c1.Cc1ccc(S(=O)(=O)[O-])cc1 [1-butyl-3-methylimidazolium tosylate]
molar heat capacity (125.01 K, Crystal 2): 211.89 ± 2.3 J/K/mol | molar heat capacity (125.12 K, Metastable crystal): 219.77 ± 2.4 J/K/mol | molar heat capacity (125.41 K, Crystal 2): 212.45 ± 2.3 J/K/mol | molar heat capacity (126.82 K, Crystal 2): 214.18 ± 2.3 J/K/mol | molar heat capacity (126.86 K, Crystal 2): 214.18 ± 2.3 J/K/mol | molar heat capacity (126.95 K, Metastable crystal): 222.38 ± 2.4 J/K/mol | molar heat capacity (127.27 K, Crystal 2): 214.65 ± 2.3 J/K/mol | molar heat capacity (128.68 K, Crystal 2): 216.45 ± 2.3 J/K/mol | molar heat capacity (128.72 K, Crystal 2): 216.36 ± 2.3 J/K/mol | molar heat capacity (128.79 K, Metastable crystal): 224.93 ± 2.4 J/K/mol | molar heat capacity (129.12 K, Crystal 2): 216.95 ± 2.3 J/K/mol | molar heat capacity (130.54 K, Crystal 2): 218.78 ± 2.4 J/K/mol | molar heat capacity (130.57 K, Crystal 2): 218.72 ± 2.4 J/K/mol | molar heat capacity (130.63 K, Metastable crystal): 227.59 ± 2.4 J/K/mol | molar heat capacity (130.97 K, Crystal 2): 219.24 ± 2.4 J/K/mol | molar heat capacity (132.4 K, Crystal 2): 221.01 ± 2.4 J/K/mol | molar heat capacity (132.43 K, Crystal 2): 221.01 ± 2.4 J/K/mol | molar heat capacity (132.46 K, Metastable crystal): 230.26 ± 2.5 J/K/mol | molar heat capacity (132.83 K, Crystal 2): 221.54 ± 2.4 J/K/mol | molar heat capacity (134.26 K, Crystal 2): 223.47 ± 2.4 J/K/mol | molar heat capacity (134.29 K, Crystal 2): 223.34 ± 2.4 J/K/mol | molar heat capacity (134.3 K, Metastable crystal): 232.84 ± 2.5 J/K/mol | molar heat capacity (134.69 K, Crystal 2): 223.96 ± 2.4 J/K/mol | molar heat capacity (136.12 K, Crystal 2): 225.86 ± 2.4 J/K/mol | molar heat capacity (136.14 K, Metastable crystal): 235.54 ± 2.5 J/K/mol | molar heat capacity (136.15 K, Crystal 2): 225.83 ± 2.4 J/K/mol | molar heat capacity (136.55 K, Crystal 2): 226.35 ± 2.4 J/K/mol | molar heat capacity (137.98 K, Crystal 2): 228.34 ± 2.5 J/K/mol | molar heat capacity (137.98 K, Metastable crystal): 238.37 ± 2.5 J/K/mol | molar heat capacity (138.01 K, Crystal 2): 228.37 ± 2.5 J/K/mol | molar heat capacity (138.41 K, Crystal 2): 228.74 ± 2.5 J/K/mol | molar heat capacity (139.81 K, Metastable crystal): 241.04 ± 2.6 J/K/mol | molar heat capacity (139.84 K, Crystal 2): 230.89 ± 2.5 J/K/mol | molar heat capacity (139.87 K, Crystal 2): 230.85 ± 2.5 J/K/mol | molar heat capacity (140.27 K, Crystal 2): 231.16 ± 2.5 J/K/mol | molar heat capacity (141.65 K, Metastable crystal): 243.74 ± 2.6 J/K/mol | molar heat capacity (141.7 K, Crystal 2): 233.49 ± 2.5 J/K/mol | molar heat capacity (141.73 K, Crystal 2): 233.37 ± 2.5 J/K/mol | molar heat capacity (142.13 K, Crystal 2): 233.8 ± 2.5 J/K/mol | molar heat capacity (143.48 K, Metastable crystal): 246.44 ± 2.6 J/K/mol | molar heat capacity (143.56 K, Crystal 2): 236.57 ± 2.5 J/K/mol | molar heat capacity (143.59 K, Crystal 2): 236.07 ± 2.5 J/K/mol | molar heat capacity (143.98 K, Crystal 2): 236.57 ± 2.5 J/K/mol | molar heat capacity (145.31 K, Metastable crystal): 249.26 ± 2.6 J/K/mol | molar heat capacity (145.41 K, Crystal 2): 240.45 ± 2.5 J/K/mol | molar heat capacity (145.44 K, Crystal 2): 238.96 ± 2.5 J/K/mol | molar heat capacity (145.83 K, Crystal 2): 239.61 ± 2.5 J/K/mol | molar heat capacity (147.15 K, Metastable crystal): 251.93 ± 2.7 J/K/mol | molar heat capacity (147.26 K, Crystal 2): 246.19 ± 2.6 J/K/mol | molar heat capacity (147.3 K, Crystal 2): 242.18 ± 2.6 J/K/mol | molar heat capacity (147.68 K, Crystal 2): 243.36 ± 2.6 J/K/mol | molar heat capacity (148.98 K, Metastable crystal): 254.72 ± 2.7 J/K/mol | molar heat capacity (149.09 K, Crystal 2): 256.71 ± 2.7 J/K/mol | molar heat capacity (149.15 K, Crystal 2): 246.16 ± 2.6 J/K/mol | molar heat capacity (149.52 K, Crystal 2): 249.76 ± 2.7 J/K/mol | molar heat capacity (150.8 K, Metastable crystal): 257.49 ± 2.7 J/K/mol | molar heat capacity (150.89 K, Crystal 2): 272.54 ± 2.9 J/K/mol | molar heat capacity (150.98 K, Crystal 2): 254.94 ± 2.8 J/K/mol | molar heat capacity (151.34 K, Crystal 2): 267.23 ± 2.8 J/K/mol | molar heat capacity (152.63 K, Metastable crystal): 260.28 ± 2.8 J/K/mol | molar heat capacity (152.68 K, Crystal 2): 270.46 ± 2.9 J/K/mol | molar heat capacity (152.77 K, Crystal 2): 286.32 ± 3 J/K/mol | molar heat capacity (153.11 K, Crystal 1): 287.72 ± 3.1 J/K/mol | molar heat capacity (154.46 K, Metastable crystal): 263.04 ± 2.8 J/K/mol | molar heat capacity (154.51 K, Crystal 1): 248.64 ± 2.7 J/K/mol | molar heat capacity (154.55 K, Crystal 1): 265.74 ± 2.9 J/K/mol | molar heat capacity (154.91 K, Crystal 1): 252.18 ± 2.7 J/K/mol | molar heat capacity (156.28 K, Metastable crystal): 265.84 ± 2.8 J/K/mol | molar heat capacity (156.37 K, Crystal 1): 244.36 ± 2.6 J/K/mol | molar heat capacity (156.4 K, Crystal 1): 246.87 ± 2.6 J/K/mol | molar heat capacity (156.77 K, Crystal 1): 244.82 ± 2.6 J/K/mol | molar heat capacity (158.1 K, Metastable crystal): 268.6 ± 2.8 J/K/mol | molar heat capacity (158.25 K, Crystal 1): 245.1 ± 2.6 J/K/mol | molar heat capacity (158.27 K, Crystal 1): 245.66 ± 2.6 J/K/mol | molar heat capacity (158.64 K, Crystal 1): 245.51 ± 2.6 J/K/mol | molar heat capacity (159.92 K, Metastable crystal): 271.3 ± 2.9 J/K/mol | molar heat capacity (160.13 K, Crystal 1): 246.75 ± 2.6 J/K/mol | molar heat capacity (160.14 K, Crystal 1): 247 ± 2.6 J/K/mol | molar heat capacity (160.51 K, Crystal 1): 247.09 ± 2.6 J/K/mol | molar heat capacity (161.74 K, Metastable crystal): 273.94 ± 2.9 J/K/mol | molar heat capacity (162 K, Crystal 1): 248.58 ± 2.6 J/K/mol | molar heat capacity (162.02 K, Crystal 1): 248.64 ± 2.6 J/K/mol | molar heat capacity (162.38 K, Crystal 1): 248.95 ± 2.6 J/K/mol | molar heat capacity (163.55 K, Metastable crystal): 276.55 ± 2.9 J/K/mol | molar heat capacity (163.88 K, Crystal 1): 250.47 ± 2.6 J/K/mol | molar heat capacity (163.89 K, Crystal 1): 250.47 ± 2.6 J/K/mol | molar heat capacity (164.25 K, Crystal 1): 250.81 ± 2.7 J/K/mol | molar heat capacity (165.36 K, Metastable crystal): 279.12 ± 2.9 J/K/mol | molar heat capacity (165.76 K, Crystal 1): 252.37 ± 2.7 J/K/mol and 252.4 ± 2.7 J/K/mol | molar heat capacity (166.12 K, Crystal 1): 252.83 ± 2.7 J/K/mol | molar heat capacity (167.18 K, Metastable crystal): 281.64 ± 2.9 J/K/mol | molar heat capacity (167.63 K, Crystal 1): 254.38 ± 2.7 J/K/mol | molar heat capacity (167.64 K, Crystal 1): 254.38 ± 2.7 J/K/mol | molar heat capacity (168 K, Crystal 1): 254.82 ± 2.7 J/K/mol | molar heat capacity (168.99 K, Metastable crystal): 284.12 ± 3 J/K/mol | molar heat capacity (169.51 K, Crystal 1): 256.4 ± 2.7 J/K/mol and 256.43 ± 2.7 J/K/mol | molar heat capacity (169.87 K, Crystal 1): 256.8 ± 2.7 J/K/mol | molar heat capacity (170.8 K, Metastable crystal): 286.54 ± 3 J/K/mol | molar heat capacity (171.38 K, Crystal 1): 258.48 ± 2.7 J/K/mol | molar heat capacity (171.39 K, Crystal 1): 258.39 ± 2.7 J/K/mol | molar heat capacity (171.74 K, Crystal 1): 258.82 ± 2.7 J/K/mol | molar heat capacity (172.6 K, Metastable crystal): 288.9 ± 3 J/K/mol | molar heat capacity (173.25 K, Crystal 1): 260.44 ± 2.8 J/K/mol | molar heat capacity (173.26 K, Crystal 1): 260.44 ± 2.8 J/K/mol | molar heat capacity (173.61 K, Crystal 1): 260.81 ± 2.8 J/K/mol | molar heat capacity (174.41 K, Metastable crystal): 291.14 ± 3 J/K/mol | molar heat capacity (175.13 K, Crystal 1): 262.42 ± 2.8 J/K/mol and 262.45 ± 2.8 J/K/mol | molar heat capacity (175.48 K, Crystal 1): 262.89 ± 2.8 J/K/mol | molar heat capacity (176.21 K, Metastable crystal): 293.28 ± 3.1 J/K/mol | molar heat capacity (177 K, Crystal 1): 264.5 ± 2.8 J/K/mol | molar heat capacity (177.01 K, Crystal 1): 264.53 ± 2.8 J/K/mol | molar heat capacity (177.35 K, Crystal 1): 264.94 ± 2.8 J/K/mol | molar heat capacity (178.02 K, Metastable crystal): 295.36 ± 3.1 J/K/mol | molar heat capacity (178.87 K, Crystal 1): 266.49 ± 2.8 J/K/mol and 266.55 ± 2.8 J/K/mol | molar heat capacity (179.21 K, Crystal 1): 266.96 ± 2.8 J/K/mol | molar heat capacity (179.82 K, Metastable crystal): 297.28 ± 3.1 J/K/mol | molar heat capacity (180.74 K, Crystal 1): 268.51 ± 2.8 J/K/mol and 268.63 ± 2.8 J/K/mol | molar heat capacity (181.08 K, Crystal 1): 268.91 ± 2.8 J/K/mol | molar heat capacity (181.62 K, Metastable crystal): 299.18 ± 3.1 J/K/mol | molar heat capacity (182.6 K, Crystal 1): 270.65 ± 2.9 J/K/mol | molar heat capacity (182.94 K, Crystal 1): 270.99 ± 2.9 J/K/mol | molar heat capacity (183.43 K, Metastable crystal): 301.07 ± 3.1 J/K/mol | molar heat capacity (184.47 K, Crystal 1): 272.64 ± 2.9 J/K/mol | molar heat capacity (184.8 K, Crystal 1): 273.01 ± 2.9 J/K/mol | molar heat capacity (185.23 K, Metastable crystal): 302.81 ± 3.2 J/K/mol | molar heat capacity (186.33 K, Crystal 1): 274.72 ± 2.9 J/K/mol | molar heat capacity (186.66 K, Crystal 1): 275.06 ± 2.9 J/K/mol | molar heat capacity (187.02 K, Metastable crystal): 304.48 ± 3.2 J/K/mol | molar heat capacity (188.19 K, Crystal 1): 276.76 ± 2.9 J/K/mol | molar heat capacity (188.51 K, Crystal 1): 277.07 ± 2.9 J/K/mol | molar heat capacity (188.82 K, Metastable crystal): 306.1 ± 3.2 J/K/mol | molar heat capacity (190.05 K, Crystal 1): 278.78 ± 2.9 J/K/mol and 278.81 ± 2.9 J/K/mol | molar heat capacity (190.37 K, Crystal 1): 279.22 ± 2.9 J/K/mol | molar heat capacity (190.62 K, Metastable crystal): 307.62 ± 3.2 J/K/mol | molar heat capacity (191.9 K, Crystal 1): 280.86 ± 2.9 J/K/mol | molar heat capacity (191.91 K, Crystal 1): 280.89 ± 2.9 J/K/mol | molar heat capacity (192.22 K, Crystal 1): 281.33 ± 2.9 J/K/mol | molar heat capacity (192.42 K, Metastable crystal): 309.11 ± 3.2 J/K/mol | molar heat capacity (193.75 K, Crystal 1): 282.97 ± 3 J/K/mol | molar heat capacity (193.77 K, Crystal 1): 283 ± 3 J/K/mol | molar heat capacity (194.07 K, Crystal 1): 283.44 ± 3 J/K/mol | molar heat capacity (194.22 K, Metastable crystal): 310.72 ± 3.1 J/K/mol | molar heat capacity (195.6 K, Crystal 1): 285.05 ± 3 J/K/mol | molar heat capacity (195.62 K, Crystal 1): 285.05 ± 3 J/K/mol | molar heat capacity (195.92 K, Crystal 1): 285.39 ± 3 J/K/mol | molar heat capacity (196.01 K, Metastable crystal): 311.96 ± 3.1 J/K/mol | molar heat capacity (197.45 K, Crystal 1): 286.95 ± 3 J/K/mol | molar heat capacity (197.47 K, Crystal 1): 287.13 ± 3 J/K/mol | molar heat capacity (197.77 K, Crystal 1): 287.47 ± 3 J/K/mol | molar heat capacity (197.81 K, Metastable crystal): 313.21 ± 3.4 J/K/mol | molar heat capacity (199.3 K, Crystal 1): 289.24 ± 3 J/K/mol | molar heat capacity (199.32 K, Crystal 1): 289.18 ± 3 J/K/mol | molar heat capacity (199.61 K, Crystal 1): 289.43 ± 3 J/K/mol | molar heat capacity (199.61 K, Metastable crystal): 314.45 ± 3.4 J/K/mol | molar heat capacity (201.21 K, Crystal 1): 291.45 ± 3 J/K/mol | molar heat capacity (201.24 K, Crystal 1): 291.48 ± 3 J/K/mol | molar heat capacity (201.47 K, Metastable crystal): 316.31 ± 3.4 J/K/mol | molar heat capacity (201.52 K, Crystal 1): 291.79 ± 3 J/K/mol | molar heat capacity (203.18 K, Crystal 1): 293.59 ± 3.1 J/K/mol | molar heat capacity (203.21 K, Crystal 1): 293.87 ± 3.1 J/K/mol | molar heat capacity (203.39 K, Metastable crystal): 317.86 ± 3.4 J/K/mol | molar heat capacity (203.49 K, Crystal 1): 293.96 ± 3.1 J/K/mol | molar heat capacity (205.15 K, Crystal 1): 295.85 ± 3.1 J/K/mol | molar heat capacity (205.18 K, Crystal 1): 296.01 ± 3.1 J/K/mol

Source: the NIST ThermoML archive (doi:10.1021/je700152c)
